System: hepatocytes
Test: Seq-Well scRNA-Seq of hepatocytes after APAP overdose (signature scores, DEG vs untreated)
Assay type: in vivo, mouse
Settings: A6 vs UT

CC(=O)Nc1ccc(O)cc1 [APAP, acetaminophen] was tested, and the “Gstz1 pct.1” value was 0.73, the “Gtf2a2 A6logFC” value was 0.2792 and the “Gtf2a2 avg_logFC” value was 0.2792. The “Gtf2a2 pct.1” value was 0.379, the “Gtpbp4 avg_logFC” value was 0.4822 and the “Gtpbp4 pct.1” value was 0.477. The “Gulo avg_logFC” value was −0.8017, the “H2-Ab1 avg_logFC” value was 0.461 and the “H2-Ab1 pct.1” value was 0.158. For the same compound, the “H2-D1 A6logFC” value was 0.2865, the “H2-D1 avg_logFC” value was 0.2865 and the “H2-D1 pct.1” value was 0.766. The “H2-Eb1 avg_logFC” value was 0.3279, the “H2-Eb1 pct.1” value was 0.105 and the “H3f3b avg_logFC” value was 0.7029. The “H6pd avg_logFC” value was 0.3437, the “H6pd pct.1” value was 0.623 and the “Haao avg_logFC” value was −0.5912. For the same compound, the “Hacl1 avg_logFC” value was −0.7069, the “Hagh avg_logFC” value was −0.674 and the “Hba-a1 avg_logFC” value was 0.735. For the same compound, the “Hba-a2 avg_logFC” value was 0.5535, the “Hbb-bs avg_logFC” value was 2.862 and the “Hbb-bt avg_logFC” value was 1.43. For the same compound, the “Hdac11 avg_logFC” value was −0.3368, the “Hdac11 pct.1” value was 0.1 and the “Hdlbp avg_logFC” value was 0.3457. For the same compound, the “Hdlbp pct.1” value was 0.737, the “Heatr1 avg_logFC” value was 0.406 and the “Heatr1 pct.1” value was 0.291. The “Hebp1 avg_logFC” value was −0.6354, the “Hectd1 A6logFC” value was 0.308 and the “Hectd1 avg_logFC” value was 0.308. The “Hectd1 pct.1” value was 0.547, the “Herc1 A6logFC” value was 0.2562 and the “Herc1 avg_logFC” value was 0.2562. For the same compound, the “Herc1 pct.1” value was 0.246, the “Herc4 A6logFC” value was 0.2675 and the “Herc4 avg_logFC” value was 0.2675. For the same compound, the “Herc4 pct.1” value was 0.332, the “Herpud1 avg_logFC” value was −0.4976 and the “Herpud1 pct.1” value was 0.535. The “Hes6 avg_logFC” value was −0.5613, the “Hgd avg_logFC” value was −0.7586 and the “Hibadh avg_logFC” value was −0.4994. The “Hibadh pct.1” value was 0.542, the “Hic2 avg_logFC” value was 0.2898 and the “Hic2 pct.1” value was 0.15. For the same compound, the “Hif1a avg_logFC” value was 0.5169, the “Hilpda avg_logFC” value was 0.7786 and the “Hint1 avg_logFC” value was −0.6739. For the same compound, the “Hint2 avg_logFC” value was −0.4243, the “Hint2 pct.1” value was 0.425 and the “Hipk1 A6logFC” value was 0.2916. The “Hipk1 avg_logFC” value was 0.2916, the “Hipk1 pct.1” value was 0.337 and the “Hmgcr A6logFC” value was 0.4167. For the same compound, the “Hmgcr avg_logFC” value was 0.4167, the “Hmgcr pct.1” value was 0.425 and the “Hmox1 avg_logFC” value was 1.348. For the same compound, the “Hnf4a avg_logFC” value was 0.8791, the “Hnrnpdl avg_logFC” value was 0.398 and the “Hnrnpdl pct.1” value was 0.406. The “Hnrnpu A6logFC” value was 0.3394, the “Hnrnpu avg_logFC” value was 0.3394 and the “Hnrnpu pct.1” value was 0.625. The “Hpd avg_logFC” value was −0.5182, the “Hpgd avg_logFC” value was −0.3878 and the “Hpgd pct.1” value was 0.115. For the same compound, the “Hpn A6logFC” value was −0.2686, the “Hpn avg_logFC” value was −0.2686 and the “Hpn pct.1” value was 0.406. For the same compound, the “Hpx avg_logFC” value was −0.3033, the “Hpx pct.1” value was 0.988 and the “Hsbp1 A6logFC” value was −0.2867. For the same compound, the “Hsd3b5 avg_logFC” value was −1.07, the “Hsd17b13 avg_logFC” value was 0.6808 and the “Hsp90ab1 avg_logFC” value was 0.3227. For the same compound, the “Hsp90ab1 pct.1” value was 0.916, the “Hspb8 avg_logFC” value was 0.6339 and the “Iah1 A6logFC” value was −0.293. For the same compound, the “Iah1 avg_logFC” value was −0.293, the “Iah1 pct.1” value was 0.446 and the “Ier5 avg_logFC” value was 0.289. For the same compound, the “Ier5 pct.1” value was 0.134, the “Ifitm3 avg_logFC” value was −0.4251 and the “Ifitm3 pct.1” value was 0.587. For the same compound, the “Igfbp2 avg_logFC” value was −0.299, the “Igfbp2 pct.1” value was 0.68 and the “Iigp1 avg_logFC” value was 0.7688. For the same compound, the “Il1b avg_logFC” value was 0.7429, the “Il1r1 avg_logFC” value was 1.245 and the “Il4ra avg_logFC” value was 0.2574. The “Il4ra pct.1” value was 0.248, the “Il6st avg_logFC” value was 0.3168 and the “Il6st pct.1” value was 0.411. For the same compound, the “Il13ra1 avg_logFC” value was 0.2785, the “Il13ra1 pct.1” value was 0.294 and the “Impad1 A6logFC” value was 0.3227. The “Impad1 avg_logFC” value was 0.3227, the “Impad1 pct.1” value was 0.391 and the “Insig2 avg_logFC” value was 0.67. For the same compound, the “Iqgap1 avg_logFC” value was 0.4554, the “Iqgap1 pct.1” value was 0.162 and the “Itgb2 avg_logFC” value was 0.2723. For the same compound, the “Itgb2 pct.1” value was 0.105, the “Itih2 avg_logFC” value was 0.5011 and the “Ivns1abp A6logFC” value was 0.3566. The “Jak1 avg_logFC” value was 0.6039, the “Jmjd1c avg_logFC” value was 0.6366 and the “Kctd3 avg_logFC” value was 0.2608. For the same compound, the “Kctd3 pct.1” value was 0.239, the “Kdelr2 A6logFC” value was 0.3977 and the “Kdelr2 avg_logFC” value was 0.3977. The “Kdelr2 pct.1” value was 0.484, the “Kdm5a A6logFC” value was 0.3514 and the “Kdm5a avg_logFC” value was 0.3514. For the same compound, the “Kdm5a pct.1” value was 0.308, the “Khk avg_logFC” value was −0.4915 and the “Khk pct.1” value was 0.702. The “Kif1b avg_logFC” value was 0.3718, the “Kif1b pct.1” value was 0.527 and the “Kif5b avg_logFC” value was 0.5012. For the same compound, the “Kif5b pct.1” value was 0.494, the “Kif21a A6logFC” value was 0.4042 and the “Klf3 A6logFC” value was 0.2674. For the same compound, the “Klf3 avg_logFC” value was 0.2674, the “Klf3 pct.1” value was 0.301 and the “Klf6 avg_logFC” value was 0.7324. The “Klf15 avg_logFC” value was −0.4518, the “Klf15 pct.1” value was 0.208 and the “Kmo avg_logFC” value was −0.3844. The “Kmo pct.1” value was 0.487, the “Krt8 avg_logFC” value was 1.196 and the “Krt18 avg_logFC” value was 1.258. For the same compound, the “Lactb2 avg_logFC” value was −0.5965, the “Laptm5 avg_logFC” value was 0.3382 and the “Laptm5 pct.1” value was 0.124. The “Lars2 avg_logFC” value was 1.392, the “Lcn2 avg_logFC” value was 0.4122 and the “Lcn2 pct.1” value was 0.301. For the same compound, the “Ldlr A6logFC” value was 0.282, the “Ldlr avg_logFC” value was 0.282 and the “Ldlr pct.1” value was 0.432. For the same compound, the “Lgals9 A6logFC” value was −0.27, the “Lgals9 avg_logFC” value was −0.27 and the “Lgals9 pct.1” value was 0.621. The “Lgmn avg_logFC” value was 0.4846, the “Lgmn pct.1” value was 0.246 and the “Lifr avg_logFC” value was −0.6262. The “Lipc A6logFC” value was −0.2548, the “Lipc avg_logFC” value was −0.2548 and the “Lipc pct.1” value was 0.401. For the same compound, the “Litaf avg_logFC” value was 0.3944, the “Litaf pct.1” value was 0.451 and the “Lmo4 avg_logFC” value was 0.3205. For the same compound, the “Lmo4 pct.1” value was 0.308, the “Lonp2 avg_logFC” value was −0.4674 and the “Lonp2 pct.1” value was 0.561. For the same compound, the “Lpgat1 avg_logFC” value was 0.5952, the “Lpin2 avg_logFC” value was 0.6867 and the “Lrg1 avg_logFC” value was 0.4908. The “Lrrc58 avg_logFC” value was 1.001, the “Lrrc59 avg_logFC” value was 0.3772 and the “Lrrc59 pct.1” value was 0.422. For the same compound, the “Lrrfip1 avg_logFC” value was 0.4459, the “Lrrfip1 pct.1” value was 0.37 and the “Lsmd1 A6logFC” value was −0.3131. The “Lyst avg_logFC” value was 0.4093, the “Lyst pct.1” value was 0.31 and the “Lyz2 avg_logFC” value was 0.7322. For the same compound, the “Maff avg_logFC” value was 0.3553, the “Maff pct.1” value was 0.224 and the “Magi3 A6logFC” value was 0.27. The “Magi3 avg_logFC” value was 0.27, the “Magi3 pct.1” value was 0.303 and the “Malat1 avg_logFC” value was 0.9206. For the same compound, the “Malat1 pct.1” value was 0.871, the “Man2a1 avg_logFC” value was 0.4971 and the “Map2k3 avg_logFC” value was 0.4347. For the same compound, the “Map2k3 pct.1” value was 0.427, the “Map3k2 A6logFC” value was 0.2518 and the “Map3k2 avg_logFC” value was 0.2518. The “Map3k2 pct.1” value was 0.265, the “Mapk6 A6logFC” value was 0.2568 and the “Mapk6 avg_logFC” value was 0.2568. For the same compound, the “Mapk6 pct.1” value was 0.303, the “Mapkapk2 A6logFC” value was 0.3138 and the “Mapkapk2 avg_logFC” value was 0.3138. For the same compound, the “Mapkapk2 pct.1” value was 0.396, the “Mat1a avg_logFC” value was 0.7908 and the “Mat2a avg_logFC” value was 0.4826. For the same compound, the “Mat2a pct.1” value was 0.487, the “Mbl1 avg_logFC” value was −0.713 and the “Mbnl1 avg_logFC” value was 0.4513. The “Mbnl1 pct.1” value was 0.492, the “Mcee A6logFC” value was −0.3199 and the “Mcl1 avg_logFC” value was 0.5709. For the same compound, the “Mcl1 pct.1” value was 0.573, the “Mcm10 avg_logFC” value was −0.4874 and the “Mdn1 avg_logFC” value was 0.318. The “Mdn1 pct.1” value was 0.251.

Reference: patent US20230053540A1, “TREATMENT OF LIVER INJURY” (Massachusetts Institute of Technology, priority 2019, published 2023)
